{"source": "patent EP2974714B1", "about": "“USE OF DERIVATIVES WITH C-O-P BONDS IN PATIENTS WITH RENAL FAILURE” (LABORATORIS SANIFIT, S.L., priority 2013, dated 2014)", "key": {"[1]": {"experiment": "In vitro affinity (adsorption) of IP6 for hydroxyapatite", "type": "binding", "details": "for maximum adsorption of IP6 on the HAP surface: 7.6 µM IP6 for 8 hours", "description": "[…] The total quantity of IP6 bound to the surface of the target (HAP) was quantified.\nTo characterise the behaviour of IP6 binding, the EC50 and Emax for the adsorption thereof on HAP were calculated. This was performed using a non-linear regression model (Log[agonist] vs. response - slope variable; GraphPad Prism software)."}, "[2]": {"experiment": "In vitro binding kinetics of IP6 to HAP", "details": "130 mg HAP", "description": "Experimental: 130 mg HAP was incubated (in triplicate) with 7.6 µM IP6, at 37°C, pH 7.4, for different time intervals while stirring continuously."}, "[3]": {"experiment": "PK profile of IP6 by 4 h intravenous infusion in normal and uraemic rats", "type": "in vivo, Wistar rats", "description": "Experimental: Wistar rats with normal kidney function were treated daily with a dose of 10 or 50 mg/kg IP6 by intravenous infusion over 4 h. Plasma samples were obtained at different timepoints up to 4 hours on day 0. The animals were then treated orally with 600 mg/kg (p.o.) adenine for 10 days to induce renal impairment. The animals were treated with alpha-calcidol (300 ng/kg) on days 11 and 13 and plasma samples were collected at different timepoints up to 4 hours on day 14. The plasma IP6 levels were quantified for both groups."}, "[4]": {"tested_on": "vitamin D-induced cardiovascular calcification in rats", "experiment": "Inhibition of vit D-induced (75,000 IU/kg x 5) cardiovascular calcification by intravenous IP6", "type": "in vivo, male Sprague Dawley (SD) rats", "description": "Experimental: male Sprague Dawley (SD) rats were divided into 7 groups and IP6 was administered intravenously daily for 14 days at a dose of 0, 0.05, 0.1, 0.5, 1, 5 and 10 mg/kg. Calcification was induced by oral administration of 75,000 IU/kg vitamin D on treatment days 3 to 7. Samples were collected. On day 14 the aortas and hearts of the animals were collected to quantify calcification."}, "[5]": {"tested_on": "progression of vitamin D-induced vascular calcification", "experiment": "Progression of vitamin D-induced calcification (100,000 IU/kg x 3), rat model for 2 weeks", "type": "in vivo, SD rats", "details": "highest dose (60 mg/kg s.c.), days 5 to 14", "description": "Experimental: 48 SD rats were treated x3 with vitamin D (s.c. 100,000 IU/kg) to induce tissue calcification. Calcification was allowed to progress for 5 days, and treatment with 0, 10 or 60 mg/kg IP6 s.c. was administered from day 5 until day 14. Calcification of the kidneys and heart was evaluated."}, "[6]": {"tested_on": "tissue calcification in an animal model of chronic renal impairment (adenine)", "experiment": "Adenine model, bolus-type s.c. administration", "type": "in vivo, male Wistar rats", "details": "s.c. bolus 3, 10 and 30 mg/kg, 28 days, adenine uraemic rats", "description": "Experimental: CKD was induced in 4 groups (n=12) of male Wistar rats by oral (p.o.) treatment with adenine (600 mg/kg/day) daily for 10 days. After treatment with adenine, the rats received alpha-calcidol at a dose of 300 ng/kg (3x/week, p.o.) until day 28. From day 0 until sacrifice (day 28), the animals were treated with a 2 ml/kg s.c. bolus of 0, 3, 10 and 30 mg/kg IP6. At each treatment, 3 additional animals were included to evaluate the […] for IP6. After 28 days the aorta, heart and right kidney were collected, and the tissue calcium content determined."}, "[7]": {"experiment": "Calcium chelation by IP6 in vitro (calcium-selective electrode)", "type": "physicochemical", "details": "2.5 mM calcium in NaCl 0.15 M, pH 7.40", "description": "Experimental: a 2.5 mM of calcium in NaCl 0.15 M, pH 7.40, was pipetted with increasing concentrations of IP6. The amount of free ionic calcium was measured potentiometrically using a calcium-selective electrode and a potentiometer."}, "cardiovascular function": {"tested_on": "cardiovascular function", "experiment": "Cardiovascular function after 2 h intravascular infusion in conscious dogs by telemetry", "type": "in vivo", "details": "for peak IP6 levels: dogs", "description": "Experimental: 4 male dogs were treated with 3, 10 and 30 mg/kg IP6 by infusion for 2 h in a Latin square design. A washout period of one week was performed between doses. ECGs were measured telemetrically at 1 h and 20 minutes prior to infusion and 5, 15, 30, 45 minutes, 1, 2, 6 and 24 h post-infusion. In a second stage, blood samples were taken for PK, for the same doses, at 20 minutes prior to infusion and 5, 15, 30 minutes and 1, 1.5, 2, 3 and 6 h post-infusion. In this case the washout period between doses was 2 days. Total and free calcium in the blood samples was also measured."}, "[8]": {"experiment": "Administration of IP6 via the dialysis system (dialysability, calcium chelation in blood)", "type": "in vitro ADME, human", "description": "Experimental: 1 litre of human blood obtained from patients undergoing therapeutic phlebotomy was introduced into a recipient forming a closed dialysis circuit to simulate a real dialysis. Two experiments were performed (administration pre- and post-dialyser, both in bypass and dialysis mode), administering IP6 to human blood for 20 minutes when outside the recipient (which simulated the animal or human body) and circulating via the dialysis circuit. The recipient containing 1 litre of whole blood at a controlled temperature of 37°C is connected to the dialysis apparatus to form a closed circuit. The dialysis apparatus will be connected for 1 hour (dialysis fluid flow of 500 ml/min and blood flow of 350 ml/min). Blood samples are collected at different times to determine the IP6 and ionic calcium levels."}, "[9]": {"experiment": "HAP crystallisation induction period (synergy with other treatments)", "type": "physicochemical", "description": "Experimental: hydroxyapatite (HAP) was crystallised by mixing appropriate concentrations of calcium and phosphate at pH 7.4. The effect of cinacalcet and sevelamer was simulated by suitably modifying the calcium and phosphate concentrations. The induction period (time required for HAP to begin to crystallise) was recorded as the analytical signal."}, "[10]": {"details": "uraemic rats, 10 mg/kg i.v. infusion over 4 h"}, "[11]": {"details": "uraemic rats, 50 mg/kg i.v. infusion over 4 h"}, "[12]": {"details": "i.v. dose of between 1 and 10 mg/kg daily for 14 days"}}, "note": "pEC50: −log10 of the molar value."}
{"smiles": "O=P(O)(O)O[C@H]1[C@H](OP(=O)(O)O)[C@@H](OP(=O)(O)O)[C@H](OP(=O)(O)O)[C@@H](OP(=O)(O)O)[C@H]1OP(=O)(O)O", "note": "[IP6, inositol hexaphosphate]", "values": [{"measurement": "maximum adsorption of IP6 on the HAP surface", "setting": "[1]; 25 mg HAP", "value": 6.42, "unit": "mg"}, {"measurement": "pEC50", "setting": "[1]; 25 mg HAP, non-linear regression", "value": 6.34}, {"measurement": "pEC50", "setting": "[1]; 75 mg HAP, non-linear regression", "value": 6.02}, {"measurement": "pEC50", "setting": "[1]; 130 mg HAP, non-linear regression", "value": 5.91}, {"measurement": "maximum adsorption of IP6 on the HAP surface", "setting": "[1]; 300 mg HAP", "value": 4.8, "unit": "mg"}, {"measurement": "pEC50", "setting": "[1]; 300 mg HAP, non-linear regression", "value": 5.68}, {"measurement": "IP6 concentration at saturation of adsorption on HAP", "setting": "[1]; 37°C, pH 7.4", "value": "≥ 7.6", "unit": "µM"}, {"measurement": "Emax for adsorption on HAP (saturation value)", "setting": "[1]; non-linear regression", "value": 6.42, "unit": "mg/g"}, {"measurement": "time at which adsorption maximum is reached", "setting": "[2]; 7.6 µM IP6, 37°C, pH 7.4", "value": 60, "unit": "min"}, {"measurement": "share of maximum binding achieved", "setting": "[2]; after 5 minutes, 7.6 µM IP6", "value": "Around 80%"}, {"measurement": "concentration at 4 h", "setting": "[3]; Wistar, rat, plasma, iv, uraemic rats, 10 mg/kg i.v. infusion over 4 h, read-out: plasma concentration after 4 hours", "value": 1200, "unit": "nM"}, {"measurement": "peak plasma concentration", "setting": "[3]; normal rats, 10 mg/kg i.v. infusion over 4 h", "value": 8.4, "unit": "µM"}, {"measurement": "peak plasma concentration", "setting": "[3]; normal rats, 50 mg/kg i.v. infusion over 4 h", "value": 68.4, "unit": "µM"}, {"measurement": "peak concentration", "setting": "[3]; [10]", "value": 2.8, "unit": "µM"}, {"measurement": "time of peak concentration", "setting": "[3]; [10]", "value": 30, "unit": "min"}, {"measurement": "peak plasma concentration", "setting": "[3]; [11]", "value": 24.6, "unit": "µM"}, {"measurement": "time of peak plasma concentration", "setting": "[3]; [11]", "value": 4, "unit": "h"}, {"measurement": "period with approximately constant concentration", "setting": "[3]; uraemic rats, 50 mg/kg i.v. infusion, from hour 1 to hour 4", "value": 3, "unit": "h"}, {"measurement": "effect on the mineral content of the aorta and heart", "setting": "[4]; i.v. 0.05 to 0.5 mg/kg daily for 14 days", "value": "did not affect"}, {"measurement": "reduction of calcification in aorta", "setting": "[4]; [12]", "value": "up to 60%"}, {"measurement": "reduction of calcification in heart", "setting": "[4]; [12]", "value": "≤ 68", "unit": "%"}, {"measurement": "inhibition of the progression of heart calcification", "setting": "[5]", "value": 100, "unit": "%"}, {"measurement": "inhibition of the progression of renal calcification", "setting": "[5]", "value": 95, "unit": "%"}, {"measurement": "calcification inhibition (aorta, heart, right kidney)", "setting": "[6]", "value": "no evidence of calcification inhibition"}, {"measurement": "IP6 concentration above which ionic calcium chelation is significant", "setting": "[7]", "value": "above 379 µM"}, {"measurement": "IP6 concentration at which chelation saturates", "setting": "[7]", "value": 3788, "unit": "µM"}, {"measurement": "pEC50", "setting": "[7]; read-out: EC50 of ionic calcium chelation", "value": 3.27}, {"measurement": "peak IP6 levels", "setting": "cardiovascular function; 3 mg/kg infusion for 2 h", "value": 27, "unit": "µM"}, {"measurement": "peak IP6 levels", "setting": "cardiovascular function; 10 mg/kg infusion for 2 h", "value": 150, "unit": "µM"}, {"measurement": "peak IP6 levels", "setting": "cardiovascular function; 30 mg/kg infusion for 2 h", "value": 482, "unit": "µM"}, {"measurement": "mean blood ionic calcium concentrations", "setting": "cardiovascular function; infusion for 2 h, 3, 10 and 30 mg/kg", "value": "unaffected"}, {"measurement": "state of health, weight, cardiorespiratory function, ECG, body temperature and total and free potassium in blood", "setting": "cardiovascular function; infusion for 2 h, 3, 10 and 30 mg/kg (any dose)", "value": "relatively unaffected"}, {"measurement": "loss of IP6 via the dialysis membrane", "setting": "[8]; administration via the dialysis line for 20 minutes, 1 litre human blood, 37°C", "value": "not lost via the dialysis membrane"}, {"measurement": "effect on free calcium in blood", "setting": "[8]; apparatus in bypass mode", "value": "chelates (sequesters) free calcium"}, {"measurement": "effect on ionic calcium levels in blood", "setting": "[8]; apparatus in dialysis mode", "value": "ionic calcium levels are restored"}, {"measurement": "induction time (time required for HAP to begin to crystallise)", "setting": "[9]; 11.4 µM IP6, pH 7.4, control 8 minutes", "value": 28, "unit": "min"}, {"measurement": "effect of adding IP6 to simulated cinacalcet and sevelamer", "setting": "[9]; IP6 0-11.4 µM with constant simulated concentration of cinacalcet or sevelamer", "value": "clear synergistic effect"}]}
